Among the targets are CDK1 CCNA2 (human) (UniProt P06493+P20248); CDK1 CCNB1 (human) (UniProt P06493+P14635); CDK2 CCNA2 (human) (UniProt P24941+P20248); CDK2 CCNE1 (human) (UniProt P24941+P24864); CDK3 CCNE1 (human) (UniProt Q00526+P24864); CDK4 CCND1 (human) (UniProt P24385+P11802); CDK4 CCND3 (human) (UniProt P30281+P11802); CDK5 CDK5R1 p25 (human) (UniProt Q00535+Q15078); CDK5 CDK5R1 p35 (human) (UniProt Q00535+Q15078); CDK6 CCND1 (human) (UniProt Q00534+P24385); CDK6 CCND3 (human) (UniProt P30281+Q00534); CDK7 CCNH MNAT1 (human) (UniProt P50613+P51948+P51946); CDK9 CCNK (human) (UniProt O75909+P50750); CDK9 CCNT1 (human) (UniProt P50750+O60563); DYRK1B (human) (UniProt Q9Y463); LTK (human) (UniProt P29376); MAP3K7 TAB1 (human) (UniProt O43318+Q15750); PRKCH (human) (UniProt P24723); STK33 (human) (UniProt Q9BYT3).

What all share (test): radiometric filter-binding kinase assay, Kinase HotSpot
Common to all, as to settings: compound 0.5 µM; ATP 10 µM

For experiment [1], the system named is SGK1 (human), O00141 [S422D].
Sequence of SGK1 (human), O00141 [S422D] (O00141 whole entry S422D, looked up): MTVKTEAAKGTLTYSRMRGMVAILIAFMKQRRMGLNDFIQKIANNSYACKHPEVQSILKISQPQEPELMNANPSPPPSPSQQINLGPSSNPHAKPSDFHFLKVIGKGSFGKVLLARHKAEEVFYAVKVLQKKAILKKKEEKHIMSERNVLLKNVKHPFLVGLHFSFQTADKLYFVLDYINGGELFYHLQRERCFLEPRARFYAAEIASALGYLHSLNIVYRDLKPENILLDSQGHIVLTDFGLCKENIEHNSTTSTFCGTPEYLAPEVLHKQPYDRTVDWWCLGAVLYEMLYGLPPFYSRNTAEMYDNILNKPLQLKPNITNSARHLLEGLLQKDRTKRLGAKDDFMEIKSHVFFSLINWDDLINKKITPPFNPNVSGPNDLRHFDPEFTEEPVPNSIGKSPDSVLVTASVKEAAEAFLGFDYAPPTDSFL

Sequence of CDK2 CCNA2 (human) (P20248 whole entry, looked up, other chains not shown): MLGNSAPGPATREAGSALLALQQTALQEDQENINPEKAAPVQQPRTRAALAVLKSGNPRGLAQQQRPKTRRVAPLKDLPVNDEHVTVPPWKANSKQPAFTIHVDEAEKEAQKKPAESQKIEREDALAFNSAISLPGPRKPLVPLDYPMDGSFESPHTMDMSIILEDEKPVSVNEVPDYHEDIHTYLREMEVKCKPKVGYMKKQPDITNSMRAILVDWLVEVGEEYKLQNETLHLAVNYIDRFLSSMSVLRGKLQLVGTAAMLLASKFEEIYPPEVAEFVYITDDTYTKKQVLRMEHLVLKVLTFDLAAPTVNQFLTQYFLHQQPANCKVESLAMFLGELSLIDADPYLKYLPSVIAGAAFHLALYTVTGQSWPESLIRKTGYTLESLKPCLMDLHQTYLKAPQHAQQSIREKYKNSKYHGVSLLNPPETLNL
Sequence of CDK5 CDK5R1 p25 (human) (Q00535 whole entry, looked up): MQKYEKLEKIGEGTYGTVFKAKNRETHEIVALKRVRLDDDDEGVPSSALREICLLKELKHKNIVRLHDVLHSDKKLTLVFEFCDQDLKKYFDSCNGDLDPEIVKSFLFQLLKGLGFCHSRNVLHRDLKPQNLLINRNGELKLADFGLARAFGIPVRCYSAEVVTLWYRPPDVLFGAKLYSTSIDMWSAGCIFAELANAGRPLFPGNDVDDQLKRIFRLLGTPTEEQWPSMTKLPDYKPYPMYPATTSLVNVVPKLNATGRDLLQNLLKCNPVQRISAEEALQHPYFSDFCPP
Sequence of CDK5 CDK5R1 p25 (human) (Q15078 whole entry, looked up): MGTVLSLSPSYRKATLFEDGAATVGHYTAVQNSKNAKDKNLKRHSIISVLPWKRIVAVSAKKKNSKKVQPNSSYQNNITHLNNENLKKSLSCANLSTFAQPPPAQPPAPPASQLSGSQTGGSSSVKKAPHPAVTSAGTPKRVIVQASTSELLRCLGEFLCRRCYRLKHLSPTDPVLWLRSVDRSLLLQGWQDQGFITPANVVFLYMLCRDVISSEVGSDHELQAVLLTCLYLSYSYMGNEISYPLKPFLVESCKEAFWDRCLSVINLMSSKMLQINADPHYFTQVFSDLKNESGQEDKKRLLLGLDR
Sequence of PRKCH (human) (P24723 whole entry, looked up): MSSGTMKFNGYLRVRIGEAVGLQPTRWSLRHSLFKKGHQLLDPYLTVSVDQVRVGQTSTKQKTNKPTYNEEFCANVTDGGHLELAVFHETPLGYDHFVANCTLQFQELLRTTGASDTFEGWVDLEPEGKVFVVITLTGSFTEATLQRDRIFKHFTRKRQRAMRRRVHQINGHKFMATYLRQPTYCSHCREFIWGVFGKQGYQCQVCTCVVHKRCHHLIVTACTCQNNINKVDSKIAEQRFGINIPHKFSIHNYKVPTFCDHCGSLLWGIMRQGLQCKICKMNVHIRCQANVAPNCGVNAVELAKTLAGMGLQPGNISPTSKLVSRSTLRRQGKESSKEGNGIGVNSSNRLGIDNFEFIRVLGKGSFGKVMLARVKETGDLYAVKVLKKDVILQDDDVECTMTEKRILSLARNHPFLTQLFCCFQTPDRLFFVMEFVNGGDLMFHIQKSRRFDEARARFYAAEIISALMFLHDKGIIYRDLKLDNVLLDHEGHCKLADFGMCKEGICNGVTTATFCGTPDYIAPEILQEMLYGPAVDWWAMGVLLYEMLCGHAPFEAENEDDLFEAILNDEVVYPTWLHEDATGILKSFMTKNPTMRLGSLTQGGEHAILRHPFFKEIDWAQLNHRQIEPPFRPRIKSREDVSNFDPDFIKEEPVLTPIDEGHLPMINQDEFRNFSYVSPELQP
Sequence of CDK6 CCND1 (human) (P24385 whole entry, looked up): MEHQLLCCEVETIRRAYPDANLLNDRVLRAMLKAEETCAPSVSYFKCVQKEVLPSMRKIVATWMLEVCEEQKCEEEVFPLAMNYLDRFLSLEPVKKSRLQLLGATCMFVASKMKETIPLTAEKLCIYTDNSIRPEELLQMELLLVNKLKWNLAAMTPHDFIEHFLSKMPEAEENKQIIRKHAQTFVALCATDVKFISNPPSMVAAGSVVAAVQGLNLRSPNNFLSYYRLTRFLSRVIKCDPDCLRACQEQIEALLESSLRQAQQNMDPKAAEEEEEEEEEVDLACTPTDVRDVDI
Sequence of CDK6 CCND1 (human) (Q00534 whole entry, looked up): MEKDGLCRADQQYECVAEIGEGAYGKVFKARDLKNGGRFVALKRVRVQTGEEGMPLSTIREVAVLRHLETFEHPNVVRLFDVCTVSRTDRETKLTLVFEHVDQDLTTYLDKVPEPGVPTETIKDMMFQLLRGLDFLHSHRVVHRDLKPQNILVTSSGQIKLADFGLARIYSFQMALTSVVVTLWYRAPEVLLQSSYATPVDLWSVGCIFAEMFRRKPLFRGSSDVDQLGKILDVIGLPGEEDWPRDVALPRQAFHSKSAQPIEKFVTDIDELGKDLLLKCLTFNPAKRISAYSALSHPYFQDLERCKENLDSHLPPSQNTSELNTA
Sequence of STK33 (human) (Q9BYT3 whole entry, looked up): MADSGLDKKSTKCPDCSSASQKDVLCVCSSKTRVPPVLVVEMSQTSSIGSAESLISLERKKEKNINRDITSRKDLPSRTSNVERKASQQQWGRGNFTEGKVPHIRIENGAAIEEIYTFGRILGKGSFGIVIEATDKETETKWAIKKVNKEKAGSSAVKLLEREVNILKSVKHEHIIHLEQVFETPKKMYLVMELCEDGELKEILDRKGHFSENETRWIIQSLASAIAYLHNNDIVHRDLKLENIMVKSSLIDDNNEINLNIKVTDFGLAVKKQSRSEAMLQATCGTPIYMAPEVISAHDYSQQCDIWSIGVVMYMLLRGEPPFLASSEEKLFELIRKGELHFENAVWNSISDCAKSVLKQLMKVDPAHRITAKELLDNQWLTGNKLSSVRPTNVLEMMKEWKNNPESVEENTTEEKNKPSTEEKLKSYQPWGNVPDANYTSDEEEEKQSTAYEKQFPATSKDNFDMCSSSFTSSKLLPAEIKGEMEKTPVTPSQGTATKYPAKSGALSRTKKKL
Sequence of CDK9 CCNK (human) (O75909 whole entry, looked up): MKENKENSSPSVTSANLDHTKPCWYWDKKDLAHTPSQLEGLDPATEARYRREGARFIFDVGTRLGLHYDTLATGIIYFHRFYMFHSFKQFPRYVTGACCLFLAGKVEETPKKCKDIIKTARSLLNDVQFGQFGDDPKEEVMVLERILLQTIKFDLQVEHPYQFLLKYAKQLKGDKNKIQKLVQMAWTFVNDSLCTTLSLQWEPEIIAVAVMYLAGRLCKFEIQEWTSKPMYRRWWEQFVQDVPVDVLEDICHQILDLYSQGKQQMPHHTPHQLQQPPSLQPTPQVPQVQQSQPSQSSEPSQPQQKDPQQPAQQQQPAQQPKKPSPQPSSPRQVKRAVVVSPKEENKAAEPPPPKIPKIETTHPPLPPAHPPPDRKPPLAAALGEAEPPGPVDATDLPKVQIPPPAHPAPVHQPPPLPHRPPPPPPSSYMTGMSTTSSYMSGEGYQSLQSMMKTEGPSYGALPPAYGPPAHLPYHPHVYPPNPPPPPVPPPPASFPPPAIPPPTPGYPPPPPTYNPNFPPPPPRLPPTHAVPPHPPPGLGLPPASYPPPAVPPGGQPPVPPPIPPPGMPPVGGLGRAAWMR
Sequence of CDK9 CCNK (human) (P50750 whole entry, looked up): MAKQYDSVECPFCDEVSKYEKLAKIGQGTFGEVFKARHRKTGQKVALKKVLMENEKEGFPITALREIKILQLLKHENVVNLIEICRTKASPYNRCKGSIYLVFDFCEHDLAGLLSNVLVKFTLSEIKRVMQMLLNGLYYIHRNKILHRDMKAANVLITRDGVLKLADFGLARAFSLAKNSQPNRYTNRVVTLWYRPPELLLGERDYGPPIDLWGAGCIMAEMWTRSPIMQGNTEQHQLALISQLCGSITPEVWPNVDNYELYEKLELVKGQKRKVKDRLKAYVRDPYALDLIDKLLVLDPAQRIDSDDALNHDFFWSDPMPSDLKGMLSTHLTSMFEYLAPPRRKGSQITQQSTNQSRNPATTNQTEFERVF
Sequence of DYRK1B (human) (Q9Y463 whole entry, looked up): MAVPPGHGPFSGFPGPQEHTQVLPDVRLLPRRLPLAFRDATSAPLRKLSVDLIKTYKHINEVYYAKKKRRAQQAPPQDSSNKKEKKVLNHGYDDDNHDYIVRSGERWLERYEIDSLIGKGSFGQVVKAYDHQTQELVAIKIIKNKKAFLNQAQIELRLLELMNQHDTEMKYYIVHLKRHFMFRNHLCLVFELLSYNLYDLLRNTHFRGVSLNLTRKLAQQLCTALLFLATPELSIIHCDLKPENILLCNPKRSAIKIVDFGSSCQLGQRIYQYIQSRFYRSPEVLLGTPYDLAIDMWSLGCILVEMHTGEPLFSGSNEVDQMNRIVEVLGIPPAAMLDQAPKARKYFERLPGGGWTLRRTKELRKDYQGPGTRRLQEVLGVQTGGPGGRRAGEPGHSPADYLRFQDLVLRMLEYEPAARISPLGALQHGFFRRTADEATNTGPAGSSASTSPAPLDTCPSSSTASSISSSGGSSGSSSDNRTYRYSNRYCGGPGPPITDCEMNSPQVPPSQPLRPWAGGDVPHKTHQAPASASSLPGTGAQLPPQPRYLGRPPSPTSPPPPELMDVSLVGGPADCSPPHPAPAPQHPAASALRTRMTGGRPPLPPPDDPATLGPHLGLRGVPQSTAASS

The term residual activity denotes the signal under treatment as a percentage of the control signal. With `CC(C)(C)n1nc(Cc2cccc3ccccc23)c2c(N)ncnc21`, the residual activity at CDK1 CCNA2 (human) was found to be 94.8%; on CDK1 CCNB1 (human), 107%; at CDK2 CCNA2 (human) it was 99.4%; at CDK2 CCNE1 (human) it was 89.6%; at CDK3 CCNE1 (human), 87.8%; at CDK4 CCND1 (human), 96.7%. For the same molecule, the residual activity at CDK4 CCND3 (human) was determined as 95.8%; on CDK5 CDK5R1 p25 (human), 109%; on CDK5 CDK5R1 p35 (human), 95.6%; on CDK6 CCND1 (human) it was 98.6%; on CDK6 CCND3 (human), 97.3%; on CDK7 CCNH MNAT1 (human), 100%. The residual activity at CDK9 CCNK (human) is 81.4%; on CDK9 CCNT1 (human), 102%; on DYRK1B (human), 98.6%; on LTK (human), 98.2%; on MAP3K7 TAB1 (human) it was 99%; at PRKCH (human), 92.1%. The residual activity on STK33 (human) was determined as 99.7%.
Consider `N#CC(C#N)=C(N)/C(C#N)=C/c1ccc(O)cc1`, for which, in experiment [1], the residual activity is 96.1%.
For `O=C1Nc2cc(Br)ccc2/C1=C1/Nc2ccccc2/C1=N\O`, the residual activity in [1] is 60.9%.
Same read-out and setting: in the case of `CCCC(=O)Oc1ccc2[nH]c(C(=O)c3cc4ccccc4[nH]3)cc2c1` it was 97%; in that of `COc1ccc(-c2cnc3c(-c4ccsc4)cnn3c2)cc1`, 81.8%.
Still for that read-out and setting: the same measure for `CC(C)[C@H](CO)Nc1nc(Nc2cccc(Cl)c2)c2ncn(C(C)C)c2n1`: 99.1%; for `O=c1cc(N2CCOCC2)oc2c1ccc1ccccc12`: 98%.
On the same count and under the same terms, in the case of `CCN(CC)C(=O)c1ccc(Nc2nc(OCC3CCCCC3)c3nc[nH]c3n2)cc1` it was 84.7%; in that of `Nc1nccc(-c2c(-c3ccc(F)cc3)ncn2C2CCNCC2)n1`, 97.4%.
As for `Cc1ccc(Nc2nccc(N(C)c3ccc4c(C)n(C)nc4c3)n2)cc1S(N)(=O)=O`, the residual activity in [1] stood at 125%.
On to `O=C1NC(=O)C(c2cn(CCCO)c3ncccc23)=C1c1cnccn1`, for which the residual activity in [1] is 91.2%.
Same read-out and setting: in the case of `COc1ccc2c(c1)/C(=C/c1cnc[nH]1)C(O)=N2` it was 71.5%; in that of `Fc1ccc(-c2nc3n(c2-c2ccncc2)CCS3)cc1`, 100%.
On to `O=C1c2ccccc2-c2nc3nnnn3nc21`, for which the residual activity in [1] turned out to be 67.2%.
Same read-out and setting: the same measure for `CC(=O)c1ccc(N2CCOCC2)cc1O`: 97.2%; for `O=C(Nc1cccc(Nc2nccc(Nc3cccc(C(F)(F)F)c3)n2)c1)C1CC1`: 103%; for `CC(=O)O/N=C1\C(=C2\C(=O)Nc3cc(Br)ccc32)Nc2ccccc21`: 81.8%.
Same read-out and setting: in the case of `CC(C)(C)c1nc2c3ccc(F)cc3c3c(=O)[nH]ccc3c2[nH]1` it was 50.9%; in that of `CO[C@H]1CC2CC[C@@H](C)[C@@](O)(O2)C(=O)C(=O)N2CCCC[C@H]2C(=O)OC([C@H](C)C[C@@H]2CC[C@@H](O)[C@H](OC)C2)CC(=O)[C@H](C)/C=C(\C)[C@@H](O)[C@@H](OC)C(=O)[C@H](C)C[C@H](C)/C=C/C=C/C=C/1C` (some centres not stated), 101%; in that of `Cc1cncc2cccc(S(=O)(=O)N3CCCN(C(=O)CN)C[C@H]3C)c12`, 103%.
Consider `Nc1n[nH]c2nnc(-c3c(-c4ccccc4)nn4ccccc34)cc12`, for which, in experiment [1], the residual activity was found to be 99.9%.
The same measure, in the same setting: in the case of `COc1cc2ncnc(Nc3ccc(F)c(Cl)c3)c2cc1OCCCN1CCOCC1` it was 131%.
Still for that read-out and setting: in the case of `O=c1cc(-c2cccc3c2Sc2ccccc2S3)oc(N2CCOCC2)c1` it was 90.6%; in that of `COc1ccc(S(=O)(=O)N(CCO)c2ccccc2CN(C)C/C=C/c2ccc(Cl)cc2)cc1`, 103%.
Take `Nc1nnc2[nH]c3ccccc3nc1-2`: the residual activity in experiment [1] came to 114%.
Same read-out and setting: in the case of `Cn1nc2c3c(cccc31)C(=O)c1ccccc1-2` it was 94.8%; in that of `Cc1cc2ncc(-c3ccccc3)nc2cc1C`, 103%; in that of `NC(=O)c1cccc(-c2cc(Nc3ccc(OC(F)(F)F)cc3)ncn2)c1`, 101%.
Same read-out and setting: in the case of `Oc1ccc(-c2nc(-c3ccc(F)cc3)c(-c3ccncc3)[nH]2)cc1` it was 101%.

Values taken from the kinase profiling compilation of Christmann-Franck et al. (2016).
